For assay [1], the system named is Primary hippocampal neurons. In words: Cell viability assay (CellTiter-Glo) in neurons. The assay is classed as cell-based, Wistar rats. As to conditions: for IC50: concentration diminishing cell viability by 50% vs vehicle. As for the experimental part:
Cell viability was measured at 24, 48, and 72 h of treatment with different drug concentration ranges. For each cellular type, we determined the half-maximal inhibitory concentration (IC50) of each drug.
(§1) Primary hippocampal neurons were obtained from Wistar rats on embryonic day 18. Briefly, embryos were removed from the womb under sterile conditions and decapitated to dissect the brains. Hippocampi were isolated at 4 °C in Hank’s balanced salt solution (HBSS) without calcium and magnesium, supplemented with 10 mM HEPES buffered saline and 100 U/mL of penicillin-streptomycin. The hippocampi were mechanically disaggregated using fire-polished pipettes and plated for 2–4 h in neuronal plating medium composed of minimum essential medium (MEM) enriched with 0.6% D-glucose and 10% horse serum. Neuronal plating medium was replaced by neurobasal medium supplemented with 1X B-27 and 2 mM L-glutamine. Neurons were grown for 7 days prior to the experiments. For the microglial cells, we used the BV-2 immortalized murine cell line. Microglial cells were cultured in Dulbecco’s modified Eagle medium (DMEM) with 4.5 g/L D-glucose, 2 mM L-glutamine, 100 U/mL of penicillin-streptomycin, and 10% heat-inactivated fetal bovine serum. Cells were maintained at 37 °C in a humidified incubator with 5% CO2. All culture media were purchased from Thermo Fisher Scientific (Waltham, MA, USA).
Neurons and microglia were both seeded at a density of 10,000 cells/well in 96-well plates previously treated with 0.1 mg/mL of poly-L-lysine (Sigma-Aldrich). […] Cell viability was determined at 24, 48, and 72 h. The percentage of viable cells was quantified using the CellTiter-Glo® Luminescent Cell Viability Assay (Promega Biotech Ibérica, Madrid, Spain) following the instructions by the manufacturer. The […] of the cell culture media alone was subtracted as the background from all readings. Cell viability in the drug-treated cells was normalized to their respective vehicle controls. Experiments were repeated three times, each condition in triplicate.
Statistical analysis was performed using Prism 8 software (GraphPad, Boston, MA, USA). For the cell viability assays, a linear regression analysis was made with logarithmic transformation of the drug concentrations in the X-axis. The coefficient of determination (R²) was calculated as a measurement of the adjustment of the data to the regression model. The Mann–Whitney test was used to compare two different conditions. The Kruskal–Wallis test was used to compare the different concentrations of each drug against the vehicle or LPS. Statistical significance was established at p < 0.05.
(In general: ATP-based viability assays read luminescence as a measure of living cells.)

Assay [2] deals with neurons. In words: RNA-sequencing of drug-treated neurons. The assay is classed as cell-based, rat.
The test system of a further assay is Nrf2. In words: Nrf2 nuclear translocation by immunofluorescence in microglia. As to conditions: for Nrf2 activation (nuclear translocation), result in words: 4 h, any tested concentration. The assay is classed as cell-based, murine. On the procedure: as §1
For the immunofluorescence experiments, neurons and microglia were directly seeded on glass coverslips previously treated with 1 mg/mL of poly-L-lysine. […] After the drug treatments, the cells were fixed on ice with 4% paraformaldehyde for 25 min and then permeabilized and blocked using 0.1% Triton X-100 (10 min) and 5% BSA (30 min), respectively. Cells were then incubated overnight with the primary antibodies and 1% BSA at 4 °C. The primary antibodies anti-Nrf2 (ab1375550) and anti-NF-kB p65 (ab16502) (both from Abcam, Cambridge, United Kingdom) were used at 1:200. […] For each experimental condition, five random fields were captured and analyzed using ImageJ software (National Institutes of Health, Maryland, DC, USA). Activation of Nrf2 or NF-kB was defined as nuclear translocation, measured by the increase in the mean fluorescence intensity (MFI) in the nucleus. […]

Assay [3] deals with LPS-activated microglia cells. In words: RNA-sequencing of LPS-activated microglia cells treated with drug. The assay is classed as cell-based, mouse. As to conditions: 30 µM DMF. On the procedure: Microglia cells were activated with LPS and treated with the same drug concentrations at the same timepoints. Each experiment was repeated three times. RNA was extracted using the Maxwell® 16 LEV simplyRNA Cells Kit and the robotic platform Maxwell® 16 (both from Promega Biotech Ibérica) following the manufacturer’s instructions. RNA-sequencing was performed as previously described using the NovaSeq 6000 Sequencing System (Illumina, San Diego, CA, USA) by pair-end (150 x 2) and at a sequencing depth of 20 million reads per sample [60]. FastQC v0.12.1 and Cutadapt v4.4 were used for quality control of the raw reads and removal of the adapter sequences, respectively. Trimmomatic v0.39 was employed to further select trimmed reads larger than 20 nucleotides and with a sequencing quality score greater than 30 [62]. Reads were aligned with HISAT2 v2.2.1 to the mouse or rat genome assemblies GRCm39 and mRatBN7.2, respectively. Mapped reads were annotated using Ensembl gene annotation v110 for the mouse genome and v111 for the rat genome and counts quantified using HTSeq v2.0.3 [63]. Gene counts were analyzed using principal components with custom R scripts (R version 4.3.1). DESeq2 v1.40.2 was used for differential expression analysis.

The subject of assay [4] is neurons. In words: Neuronal apoptosis (TUNEL) induced by conditioned medium of LPS-activated microglia. The assay is classed as cell-based, Wistar rats. As to conditions: neurons pre-treated 4 h, then 4 h with supernatant of LPS + drug microglia (48 h). As for the experimental part:
Given that physiologically, if any of the drugs enter the BBB, both the neurons and microglia will be exposed to them, we decided to study the synergistic effects (direct antioxidant properties in neurons with indirect anti-inflammatory effects in microglia) of the drugs in both cells. […] Representative confocal microscopy images of the apoptosis assay are shown in Supplementary Figure S2.
The apoptosis of neurons was determined using the DeadEnd™ Fluorometric TUNEL System (Promega Biotech Ibérica, Madrid, Spain) following the manufacturer’s instructions. Neurons were seeded on glass coverslips previously treated with 1 mg/mL of poly-L-lysine at a density of 500,000 cells/well. […] Then, the supernatants of 48 h LPS-treated or LPS + drug (at the same drug concentrations as in neurons) microglia cells were added to the neuronal culture and incubated for an additional 4 h. Apoptosis was determined using Leica TCS SP5 confocal microscopy and quantified using ImageJ software. For each experimental condition, five random fields were captured to count the number of positive fluorescent cells (apoptotic) divided by the total number of cells identified by the nuclear fluorescent staining TO-PRO. Each experiment was repeated three times.

Setting [5] is: 4 h, 30 µM DMF, 30 µM MMF, 6 µM CBD.
[6] abbreviates: 24 h, 30 µM DMF, 30 µM MMF, 6 µM CBD.
Setting [7] is: Rattus norvegicus, Hippocampal neuron, 24 h, neurons, 24 h, read-out: IC50 (cell viability).
The mark [8] stands for this setting: Rattus norvegicus, Hippocampal neuron, 48 h, neurons, 48 h, read-out: IC50 (cell viability).
The mark [9] stands for this setting: Rattus norvegicus, Hippocampal neuron, 72 h, neurons, 72 h, read-out: IC50 (cell viability).
[10] abbreviates: neurons, 24 h, read-out: IC50 (cell viability).
[11] abbreviates: neurons, 72 h, read-out: IC50 (cell viability).

Structures can show the parent of a compound that is named as a salt. Where two headings read alike, the source gives them in different places.

One may read the IC50 as the concentration that gives 50% inhibition. `C=C(C)[C@@H]1CCC(C)=C[C@H]1c1c(O)cc(CCCCC)cc1O` [CBD, cannabidiol]: the IC50 worked out at 15.1 µM in assay [1] (Rattus norvegicus, Hippocampal neuron, 24 h, read-out: IC50 (cell viability), neurons, 24 h); 13.6 µM in assay [1] (Rattus norvegicus, Hippocampal neuron, 48 h, read-out: IC50 (cell viability), neurons, 48 h); 13 µM in assay [1] (Rattus norvegicus, Hippocampal neuron, 72 h, read-out: IC50 (cell viability), neurons, 72 h); 15 µM in assay [1] (read-out: IC50 (cell viability), neurons, 24 h); 13 µM in assay [1] (read-out: IC50 (cell viability), neurons, 72 h). Further, the “decrease in cell viability” value in assay [1] (neurons, 10 µM) was “around 20%”. The “number of differentially expressed genes (DEGs) vs vehicle” value (shortened to “number of differentially expressed genes”) in the assay on neurons [2] (setting [5]) is “four”; with neurons [2] (setting [6]), 33. In the assay on neurons [2] (24 h, 6 µM CBD), the “Hmox1 expression vs vehicle” value is given as 4.9 log2FC. Besides, the “number of DEGs with strong downregulation (fold change < −1)” value with neurons [2] (24 h, 6 µM CBD) is “eight”. For the same compound, in the assay on neurons [2] (24 h, 6 µM CBD), the “number of DEGs with strong upregulation (fold change > 1)” value is listed as “nine”. Moreover, the “number of downregulated DEGs vs vehicle” value with neurons [2] (24 h, 30 µM DMF, 6 µM CBD) stood at 21. The “number of upregulated DEGs vs vehicle” value in the assay with neurons [2] (24 h, 30 µM DMF, 6 µM CBD) was 12. The “Nrf2 activation (nuclear translocation), result in words” value with Nrf2 is “did not produce the activation of Nrf2”. The “number of DEGs vs cells treated with LPS alone” value (from here on “number of DEGs vs cells treated”) in assay [3] (4 h, 30 µM MMF, 6 µM CBD) turned out to be 2; in assay [3] (24 h, 30 µM MMF, 6 µM CBD), 2610. Besides, the “number of downregulated DEGs vs LPS alone” value in assay [3] (24 h, 6 µM CBD) stood at 1265. Also, the “number of upregulated DEGs vs LPS alone” value in assay [3] (24 h, 6 µM CBD) is recorded as 1345. Moreover, the “effect on neuronal apoptosis, in words” value in the assay on neurons [4] (7 µM) is recorded as “prevented neuronal apoptosis”.

In the case of `COC(=O)/C=C/C(=O)OC` [DMF, Dimethyl fumarate], the IC50 in assay [1] (setting [7]) was 103 µM; in assay [1] (setting [8]), 54.5 µM; in assay [1] (setting [9]) it was 36.5 µM; in assay [1] (setting [10]) it was ~100 µM; in assay [1] (setting [11]), 36 µM. Moreover, the “decrease in cell viability” value in assay [1] (neurons, 30 µM) is “around 20%”. Further, the “number of DEGs between 24 h and 4 h of treatment (across time)” value in the assay with neurons [2] (30 µM DMF) amounted to 1276. Further, the “Hmox1 expression vs vehicle” value in the assay on neurons [2] (4 h, 30 µM DMF) is 3.9 log2FC. Besides, the “number of downregulated DEGs vs vehicle” value came to 169 in the assay with neurons [2] (4 h, 30 µM DMF) and 144 with neurons [2] (24 h, 30 µM DMF, 6 µM CBD). For the same compound, the “number of upregulated DEGs vs vehicle” value with neurons [2] (4 h, 30 µM DMF) is recorded as 238; in the assay with neurons [2] (24 h, 30 µM DMF, 6 µM CBD), 120. The figures for the “number of differentially expressed genes” value with neurons [2] (setting [5]) and in the assay with neurons [2] (setting [6]) were 407 and 264, respectively. Moreover, the “Nfe2l2 expression vs vehicle” value with neurons [2] (24 h, 30 µM DMF) is reported as 0.94 log2Fc. Also, the “Nqo1 expression vs vehicle” value with neurons [2] (24 h, 30 µM DMF, 30 µM MMF) turned out to be 2.3 log2FC. The “lowest concentration inducing nuclear translocation (activation) of Nrf2” value in the assay on Nrf2 (4 h treatment, significant vs vehicle) is given as 10 µM. For the same compound, the “number of downregulated DEGs vs LPS alone” value in assay [3] (4 h, 30 µM MMF) worked out at 340; in assay [3] (24 h, 6 µM CBD), 146. Besides, the “number of upregulated DEGs vs LPS alone” value in assay [3] (4 h, 30 µM MMF) stood at 202; in assay [3] (24 h, 6 µM CBD), 230. For the same compound, the “number of DEGs vs cells treated” value was found to be 542 in assay [3] (4 h, 30 µM MMF, 6 µM CBD) and 376 in assay [3] (24 h, 30 µM MMF, 6 µM CBD). The “number of DEGs with strong downregulation” value in assay [3] (24 h) is 67. For the same compound, the “number of DEGs with strong upregulation” value in assay [3] (24 h) is reported as 128. Also, the “effect on neuronal apoptosis, in words” value is given as “significantly prevented neuronal apoptosis” in the assay with neurons [4] (10 µM) and “not at 30 µM” in the assay on neurons [4] (30 µM).

As to `COC(=O)/C=C/C(=O)O` [MMF, monomethyl fumarate], the IC50 in assay [1] (setting [7]) is 67.8 µM; in assay [1] (setting [8]) it was 42.5 µM; in assay [1] (setting [9]), 55.6 µM; in assay [1] (setting [10]) it was ~65 µM; in assay [1] (setting [11]), 55 µM. Further, the “number of differentially expressed genes” value was “did not produce any significant transcriptomic changes” with neurons [2] (setting [5]) and “three” in the assay on neurons [2] (setting [6]). The “Nqo1 expression vs vehicle” value in the assay with neurons [2] (24 h, 30 µM DMF, 30 µM MMF) worked out at 0.98 log2FC. The “Gstp1 expression vs vehicle” value in the assay on neurons [2] (24 h, 30 µM MMF) stood at 0.66 log2FC. Besides, the “Nrf2 activation (nuclear translocation), result in words” value with Nrf2 is recorded as “did not observe Nrf2 activation”. Besides, in assay [3] (4 h, 30 µM MMF), the “number of downregulated DEGs vs LPS alone” value is reported as “three”. Besides, the “number of upregulated DEGs vs LPS alone” value in assay [3] (4 h, 30 µM MMF) is given as “five”. In addition, the “number of DEGs vs cells treated” value in assay [3] (4 h, 30 µM MMF, 6 µM CBD) is listed as “eight”; in assay [3] (24 h, 30 µM MMF, 6 µM CBD), “could not detect any transcriptomic changes”. In addition, the results for the “effect on neuronal apoptosis, in words” value in the assay with neurons [4] (10 µM) and with neurons [4] (30 µM) were “also prevented neuronal apoptosis” and “also protected neurons from apoptosis”, respectively.

The values are drawn from article PMC11642486 (International Journal of Molecular Sciences, 2024).
